# Measured values: article PMC4513247 (Molecular pharmacology, 2010)
# Where two headings read alike, the source gives them in different places.
# Columns and labels:
# SERT^WT = SERT^WT (Homo sapiens, UniProt P31645); format: binding
# DAT [1] = molecular target: T1, DAT (Homo sapiens, UniProt Q01959); format: binding; details: ~10 nM [3H]WIN35,428, fixed concentrations of carbamazepine
# NCCc1c[nH]c2ccc(O)cc12 = assay: cells, lysate or membranes; details: other: SERT^WT; [3H]5-HT saturation uptake, HEK293 cells
# DAT [2] = molecular target: T1, DAT; details: DAT versus SERT; no reference given; cited from earlier work
# NET = NET versus SERT; no reference given; cited from earlier work
# [3] = SERT, ~2 nM [3H]imipramine, fixed concentrations of carbamazepine
# SERT^WT, sequence (P31645 whole entry): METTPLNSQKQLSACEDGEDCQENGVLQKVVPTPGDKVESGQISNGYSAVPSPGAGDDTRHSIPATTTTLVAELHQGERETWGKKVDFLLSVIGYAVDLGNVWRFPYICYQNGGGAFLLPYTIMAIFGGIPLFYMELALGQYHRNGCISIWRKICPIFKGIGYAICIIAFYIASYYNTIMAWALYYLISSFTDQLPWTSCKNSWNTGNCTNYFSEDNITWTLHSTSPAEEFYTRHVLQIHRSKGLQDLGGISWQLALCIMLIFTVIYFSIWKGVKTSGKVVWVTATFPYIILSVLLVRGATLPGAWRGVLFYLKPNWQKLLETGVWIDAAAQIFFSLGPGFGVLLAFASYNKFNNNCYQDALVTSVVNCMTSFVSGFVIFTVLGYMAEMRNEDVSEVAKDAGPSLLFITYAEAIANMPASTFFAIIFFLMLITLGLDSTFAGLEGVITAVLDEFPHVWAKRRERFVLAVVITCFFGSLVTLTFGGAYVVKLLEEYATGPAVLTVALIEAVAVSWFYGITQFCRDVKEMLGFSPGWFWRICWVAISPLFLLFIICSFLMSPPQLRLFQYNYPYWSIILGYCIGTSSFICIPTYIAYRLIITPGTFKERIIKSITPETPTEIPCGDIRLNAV
# T1 sequence (Q01959 whole entry, species assumed): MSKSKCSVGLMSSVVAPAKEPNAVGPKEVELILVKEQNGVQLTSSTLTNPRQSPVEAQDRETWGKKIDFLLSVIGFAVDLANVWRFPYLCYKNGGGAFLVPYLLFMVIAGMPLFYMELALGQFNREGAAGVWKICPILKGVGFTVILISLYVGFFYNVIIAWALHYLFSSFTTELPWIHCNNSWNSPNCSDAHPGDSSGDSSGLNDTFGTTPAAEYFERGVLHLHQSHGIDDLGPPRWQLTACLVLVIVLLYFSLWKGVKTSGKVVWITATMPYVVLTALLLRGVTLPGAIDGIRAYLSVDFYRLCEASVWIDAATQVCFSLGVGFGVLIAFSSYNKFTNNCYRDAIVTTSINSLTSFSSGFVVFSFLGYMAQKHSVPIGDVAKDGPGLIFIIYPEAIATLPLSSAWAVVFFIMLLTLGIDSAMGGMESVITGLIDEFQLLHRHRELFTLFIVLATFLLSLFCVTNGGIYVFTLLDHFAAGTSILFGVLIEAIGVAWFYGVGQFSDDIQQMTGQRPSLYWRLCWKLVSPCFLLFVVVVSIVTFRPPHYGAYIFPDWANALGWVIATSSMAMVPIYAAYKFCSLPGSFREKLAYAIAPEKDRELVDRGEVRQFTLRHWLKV
compound,measurement,setting,value
ibogaine,binding together with carbamazepine (Dixon plot of [3H]imipramine binding),SERT^WT; [3],intersected
same,"binding together with carbamazepine (Dixon plot of [3H]WIN35,428 binding)",DAT [1],intersected
"CN[C@@H](C)Cc1ccc2c(c1)OCO2 [MDMA, s-(+)-3,4-methylenedioxy-methamphetamine]",binding together with carbamazepine (Dixon plot of [3H]imipramine binding),SERT^WT,mutually exclusive
SERT^WT (Homo sapiens),Km,NCCc1c[nH]c2ccc(O)cc12,1.2 ± 0.8 µM
CC(N)Cc1ccc(Cl)cc1 (stereo not shown) [para-chloroamphetamine],binding together with carbamazepine (Dixon plot of [3H]imipramine binding),SERT^WT; [3],mutually exclusive
CN(C)CCCN1c2ccccc2CCc2ccccc21 [imipramine],affinity lower than for SERT,DAT [2],~1000 fold
same,affinity lower than for SERT,NET,approximately 10 fold
